Where two headings read alike, the source gives them in different places.
Legend:
[1] = Hypotensive and anti-hypertensive activity (statement in words); type: in vivo; conditions: compared with indoramin
in vivo = conditions: mouse
laboratory animals = assay: Toxicity and sedation, tests in laboratory animals (statement in words); conditions: compared with indoramin
[2] = tested on: rats rendered hypertensive; assay: Anti-hypertensive activity in renal hypertensive rats (systolic pressure); type: in vivo, rat; conditions: 12 rats
Protocol: Anti-hypertensive activity is determined by the following procedure:
Male or female rats are rendered hypertensive by applying a figure of 8 ligature around one kidney and contralateral nephrectomy. Blood pressure stabilises at a hypertensive level after 6 weeks. Systolic pressure is measured indirectly using an E and M Pneumatic Tail Pulse Transducer and a Devices M2 recorder. A control group of rats is run with each group reacted with drug. Each group usually consists of six rats. Drugs are usually administered by the IP or oral routes. Pressures are read prior to drug administration and at 2 and 24 hours thereafter.
Blood pressure is expressed as % of control values at x hours after an oral dose of 25 mg/kg. In the test 12 rats were used instead of the usual 6.

rats = type: in vivo, rat; conditions: for Duration of sedation: 50 mg/kg; for Increase in comparative sedation: oral 10, 25 or 50 mg/kg, perphenazine and haloperidol rated at 10
Protocol: Twelve rats of each type were split into […] and dosed orally with 10, 25 or 50 mg/kg of the test compound in a vehicle comprising hydroxymethylcellulose (0.5%) in (0.9% saline). Each rat was housed singly, after dosing and observed closely for 2 hours, then intermittently for a further four hours, behavioural changes being noted.
The animals were left at least 72 hours before re-dosing to ensure the disappearance of residual hypotensive and sedative effects.

[3] = 2 hours after oral dose of 25 mg/kg
[4] = 6 hours after oral dose of 25 mg/kg
[5] = 24 hours after oral dose of 25 mg/kg
[6] = normotensive rat (male and female)
[7] = renal hypertensive rat (female)
[8] = spontaneous hypertensive rat (male)

O=C(NC1CCN(CCCC(=O)c2c[nH]c3ccccc23)CC1)c1ccccc1 [4-Benzamido-1-[4-(indol-3-yl)-4-oxobutyl]piperidine]
hypotensive and anti-hypertensive activity [1]: comparable to that of indoramin | LD50 (in vivo; ip): 542 mg/kg | LD50 at 24 h (in vivo; ip): 1000 mg/kg | LD50 (in vivo; po): > 4000 mg/kg | LD50 at 24 h (in vivo; po): > 4000 mg/kg | sedation (laboratory animals): much less sedative | toxicity (laboratory animals): much less toxic | Blood pressure expressed as % of control values [2, 3]: 60.9 % of control values | Blood pressure expressed as % of control values [2, 4]: 62.0 % of control values | Blood pressure expressed as % of control values [2, 5]: 99.0 % of control values | Duration of sedation (rats; [6]): 6 h | Duration of sedation (rats; [7]): 6 h | Duration of sedation (rats; [8]): 6 h | Approximate sedative potency ratio (rats; [6]): 1 | Increase in comparative sedation (rats; normotensive rats): 1 | Approximate sedative potency ratio (rats; [7]): 1 | Increase in comparative sedation (rats; renal hypertensive rats): 2 | Approximate sedative potency ratio (rats; [8]): 1 | Increase in comparative sedation (rats; spontaneously hypertensive rats): 1

O=C(CCCN1CCC(O)(c2ccc(Cl)cc2)CC1)c1ccc(F)cc1 [haloperidol, reference compound]
Sedation rating of comparison tranquillisers (rats; rats, reference rating of the scale): 10

OCCN1CCN(CCCN2c3ccccc3Sc3ccc(Cl)cc32)CC1 [perphenazine, reference compound]
Sedation rating of comparison tranquillisers (rats; rat, in vivo): 10

O=C(NC1CCN(CCc2c[nH]c3ccccc23)CC1)c1ccccc1 [Indoramin, 3-[2(4-benzamidopiperid-1-xl)ethyl] indole, reference compound]
Blood pressure expressed as % of control values [2, 3]: 78.0 % of control values | Blood pressure expressed as % of control values [2, 4]: 76.0 % of control values | Blood pressure expressed as % of control values [2, 5]: 98.0 % of control values

From US4038401A, “Novel indole derivative” (John Wyeth & Brother Limited, priority 1976, dated 1977)
